In ChEMBL document CHEMBL6109120, “Discovery of Novel SIK2/3 Inhibitors for the Potential Treatment of MEF2C+ Acute Myeloid Leukemia (AML)” (J Med Chem, 2025):

Tests used:
[1] = molecular target: T1, Cyclin-G-associated kinase (Homo sapiens, UniProt O14976)
T1 sequence (O14976 whole entry): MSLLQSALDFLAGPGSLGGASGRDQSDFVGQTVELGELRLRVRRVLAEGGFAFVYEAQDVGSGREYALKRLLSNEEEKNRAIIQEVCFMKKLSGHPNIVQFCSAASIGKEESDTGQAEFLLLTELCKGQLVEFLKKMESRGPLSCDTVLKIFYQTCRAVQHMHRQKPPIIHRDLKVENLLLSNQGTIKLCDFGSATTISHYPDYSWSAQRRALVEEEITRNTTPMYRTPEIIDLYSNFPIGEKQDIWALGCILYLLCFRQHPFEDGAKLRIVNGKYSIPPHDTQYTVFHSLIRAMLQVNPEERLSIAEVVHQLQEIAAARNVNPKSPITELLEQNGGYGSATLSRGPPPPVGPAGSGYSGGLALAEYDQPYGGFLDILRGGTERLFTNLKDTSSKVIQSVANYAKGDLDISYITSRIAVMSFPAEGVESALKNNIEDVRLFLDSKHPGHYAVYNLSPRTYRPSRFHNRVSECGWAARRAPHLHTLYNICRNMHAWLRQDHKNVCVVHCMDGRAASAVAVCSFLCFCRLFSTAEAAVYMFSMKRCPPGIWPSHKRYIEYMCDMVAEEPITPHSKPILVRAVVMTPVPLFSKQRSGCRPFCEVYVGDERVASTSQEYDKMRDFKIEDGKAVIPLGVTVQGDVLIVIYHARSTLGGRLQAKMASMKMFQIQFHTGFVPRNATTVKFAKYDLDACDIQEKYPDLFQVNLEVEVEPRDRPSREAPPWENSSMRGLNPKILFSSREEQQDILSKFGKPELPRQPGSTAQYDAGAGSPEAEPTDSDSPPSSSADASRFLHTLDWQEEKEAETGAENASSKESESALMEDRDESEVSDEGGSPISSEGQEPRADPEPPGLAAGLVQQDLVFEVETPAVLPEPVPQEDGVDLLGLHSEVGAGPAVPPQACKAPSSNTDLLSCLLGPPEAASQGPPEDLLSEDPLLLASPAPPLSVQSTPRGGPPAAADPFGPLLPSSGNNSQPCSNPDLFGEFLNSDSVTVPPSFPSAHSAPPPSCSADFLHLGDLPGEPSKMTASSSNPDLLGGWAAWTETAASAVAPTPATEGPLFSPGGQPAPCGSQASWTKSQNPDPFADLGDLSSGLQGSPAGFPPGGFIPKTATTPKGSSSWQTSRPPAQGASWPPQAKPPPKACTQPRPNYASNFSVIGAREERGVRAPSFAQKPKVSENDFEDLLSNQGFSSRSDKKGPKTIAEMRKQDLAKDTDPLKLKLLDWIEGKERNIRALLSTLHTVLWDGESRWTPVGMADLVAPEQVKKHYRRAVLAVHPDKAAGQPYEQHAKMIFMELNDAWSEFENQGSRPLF
Description: Binding affinity to human GAK by KINOMEscan assay

[2] = molecular target: Tyrosine-protein kinase Lck (Homo sapiens, UniProt P06239); assay: Binding affinity to human LCK by KINOMEscan assay
[3] = molecular target: T2, Receptor-type tyrosine-protein kinase FLT3 (Homo sapiens, UniProt P36888); assay: Binding affinity to human FLT3 by KINOMEscan assay
T2 sequence (P36888 whole entry): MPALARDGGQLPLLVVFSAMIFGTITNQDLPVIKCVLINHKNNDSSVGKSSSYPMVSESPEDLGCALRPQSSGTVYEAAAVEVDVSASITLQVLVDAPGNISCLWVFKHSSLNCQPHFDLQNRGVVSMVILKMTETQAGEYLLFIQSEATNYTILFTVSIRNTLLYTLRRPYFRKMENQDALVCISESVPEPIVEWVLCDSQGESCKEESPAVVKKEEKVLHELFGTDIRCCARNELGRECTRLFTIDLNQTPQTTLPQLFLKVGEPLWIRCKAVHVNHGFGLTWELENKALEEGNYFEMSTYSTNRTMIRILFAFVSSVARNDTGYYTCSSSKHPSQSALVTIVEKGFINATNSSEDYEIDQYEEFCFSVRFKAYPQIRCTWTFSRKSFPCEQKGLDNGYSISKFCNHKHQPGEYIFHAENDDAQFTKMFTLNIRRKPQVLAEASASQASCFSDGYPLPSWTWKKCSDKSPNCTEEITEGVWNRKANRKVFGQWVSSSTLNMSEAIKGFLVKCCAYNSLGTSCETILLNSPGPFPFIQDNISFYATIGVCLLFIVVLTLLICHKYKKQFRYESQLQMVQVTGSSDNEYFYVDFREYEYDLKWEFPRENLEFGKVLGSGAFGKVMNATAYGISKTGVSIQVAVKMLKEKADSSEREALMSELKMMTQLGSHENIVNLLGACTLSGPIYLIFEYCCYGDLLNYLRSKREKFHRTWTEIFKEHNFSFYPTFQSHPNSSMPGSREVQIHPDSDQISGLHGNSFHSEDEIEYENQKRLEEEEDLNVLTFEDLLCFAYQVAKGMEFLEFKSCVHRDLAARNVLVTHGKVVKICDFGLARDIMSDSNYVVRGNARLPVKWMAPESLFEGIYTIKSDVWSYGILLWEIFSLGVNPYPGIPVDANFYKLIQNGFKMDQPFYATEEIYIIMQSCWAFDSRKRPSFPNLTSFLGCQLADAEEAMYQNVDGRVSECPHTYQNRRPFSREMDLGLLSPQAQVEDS

[4] = molecular target: Platelet-derived growth factor receptor alpha (Homo sapiens, UniProt P16234)
Description: Binding affinity to human PDGFRalpha by KINOMEscan assay

Cytochrome P450 2D6 = Cytochrome P450 2D6 (Homo sapiens, UniProt P10635); assay: Inhibition of CYP2D6 in human liver microsomes assessed as dextromethorphan O-demethylation reaction measured after 30 mins by LC/MS/MS analysis; assay type: ADME, Microsome
Cytochrome P450 2C19 = Cytochrome P450 2C19 (Homo sapiens, UniProt P33261); assay: Inhibition of CYP2C19 in human liver microsomes assessed as S-mephenytoin 4-hydroxylation reaction measured after 30 mins by LC/MS/MS analysis; assay type: ADME, Microsome
Sequence of Cytochrome P450 2C19 (P33261 whole entry): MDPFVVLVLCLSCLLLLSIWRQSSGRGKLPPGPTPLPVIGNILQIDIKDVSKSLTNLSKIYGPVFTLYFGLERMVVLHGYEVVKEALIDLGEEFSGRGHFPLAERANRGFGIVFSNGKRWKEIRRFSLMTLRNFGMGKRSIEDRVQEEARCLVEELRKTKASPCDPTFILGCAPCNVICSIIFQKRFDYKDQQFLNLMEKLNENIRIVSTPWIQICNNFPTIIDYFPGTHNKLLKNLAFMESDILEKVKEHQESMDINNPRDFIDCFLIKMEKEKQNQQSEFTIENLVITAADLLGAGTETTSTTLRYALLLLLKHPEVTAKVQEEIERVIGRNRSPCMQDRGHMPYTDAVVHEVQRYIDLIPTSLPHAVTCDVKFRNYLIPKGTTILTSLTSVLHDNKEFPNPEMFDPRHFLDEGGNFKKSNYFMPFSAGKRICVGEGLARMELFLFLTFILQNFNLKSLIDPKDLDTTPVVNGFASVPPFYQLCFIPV

Sequence of Cytochrome P450 2D6 (P10635 whole entry): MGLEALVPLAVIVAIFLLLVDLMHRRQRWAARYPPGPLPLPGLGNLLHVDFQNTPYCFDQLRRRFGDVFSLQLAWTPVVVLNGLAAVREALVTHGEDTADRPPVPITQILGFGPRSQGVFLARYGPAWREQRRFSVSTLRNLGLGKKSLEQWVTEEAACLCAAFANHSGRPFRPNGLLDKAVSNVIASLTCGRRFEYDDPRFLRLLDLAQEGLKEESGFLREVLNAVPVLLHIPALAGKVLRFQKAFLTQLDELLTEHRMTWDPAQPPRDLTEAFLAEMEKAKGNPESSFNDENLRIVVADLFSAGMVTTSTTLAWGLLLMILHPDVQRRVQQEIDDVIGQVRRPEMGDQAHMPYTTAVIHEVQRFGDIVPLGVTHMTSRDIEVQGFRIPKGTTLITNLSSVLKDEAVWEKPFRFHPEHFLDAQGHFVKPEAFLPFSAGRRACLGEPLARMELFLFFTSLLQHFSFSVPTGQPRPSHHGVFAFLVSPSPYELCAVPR
Sequence of Tyrosine-protein kinase Lck (P06239 whole entry): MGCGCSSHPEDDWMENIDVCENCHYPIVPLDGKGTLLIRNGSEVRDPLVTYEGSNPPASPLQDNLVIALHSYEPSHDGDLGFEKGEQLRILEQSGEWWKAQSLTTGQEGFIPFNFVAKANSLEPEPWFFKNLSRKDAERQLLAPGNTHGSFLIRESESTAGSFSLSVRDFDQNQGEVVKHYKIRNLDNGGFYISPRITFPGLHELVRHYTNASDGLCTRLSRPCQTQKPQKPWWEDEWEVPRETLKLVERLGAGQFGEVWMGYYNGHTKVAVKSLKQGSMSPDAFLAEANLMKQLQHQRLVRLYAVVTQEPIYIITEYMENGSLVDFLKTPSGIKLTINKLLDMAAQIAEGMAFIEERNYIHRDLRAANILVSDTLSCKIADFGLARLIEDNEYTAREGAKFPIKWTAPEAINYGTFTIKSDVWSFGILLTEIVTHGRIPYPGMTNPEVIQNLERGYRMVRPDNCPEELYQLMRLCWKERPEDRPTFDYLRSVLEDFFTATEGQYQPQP
Sequence of Platelet-derived growth factor receptor alpha (P16234 whole entry): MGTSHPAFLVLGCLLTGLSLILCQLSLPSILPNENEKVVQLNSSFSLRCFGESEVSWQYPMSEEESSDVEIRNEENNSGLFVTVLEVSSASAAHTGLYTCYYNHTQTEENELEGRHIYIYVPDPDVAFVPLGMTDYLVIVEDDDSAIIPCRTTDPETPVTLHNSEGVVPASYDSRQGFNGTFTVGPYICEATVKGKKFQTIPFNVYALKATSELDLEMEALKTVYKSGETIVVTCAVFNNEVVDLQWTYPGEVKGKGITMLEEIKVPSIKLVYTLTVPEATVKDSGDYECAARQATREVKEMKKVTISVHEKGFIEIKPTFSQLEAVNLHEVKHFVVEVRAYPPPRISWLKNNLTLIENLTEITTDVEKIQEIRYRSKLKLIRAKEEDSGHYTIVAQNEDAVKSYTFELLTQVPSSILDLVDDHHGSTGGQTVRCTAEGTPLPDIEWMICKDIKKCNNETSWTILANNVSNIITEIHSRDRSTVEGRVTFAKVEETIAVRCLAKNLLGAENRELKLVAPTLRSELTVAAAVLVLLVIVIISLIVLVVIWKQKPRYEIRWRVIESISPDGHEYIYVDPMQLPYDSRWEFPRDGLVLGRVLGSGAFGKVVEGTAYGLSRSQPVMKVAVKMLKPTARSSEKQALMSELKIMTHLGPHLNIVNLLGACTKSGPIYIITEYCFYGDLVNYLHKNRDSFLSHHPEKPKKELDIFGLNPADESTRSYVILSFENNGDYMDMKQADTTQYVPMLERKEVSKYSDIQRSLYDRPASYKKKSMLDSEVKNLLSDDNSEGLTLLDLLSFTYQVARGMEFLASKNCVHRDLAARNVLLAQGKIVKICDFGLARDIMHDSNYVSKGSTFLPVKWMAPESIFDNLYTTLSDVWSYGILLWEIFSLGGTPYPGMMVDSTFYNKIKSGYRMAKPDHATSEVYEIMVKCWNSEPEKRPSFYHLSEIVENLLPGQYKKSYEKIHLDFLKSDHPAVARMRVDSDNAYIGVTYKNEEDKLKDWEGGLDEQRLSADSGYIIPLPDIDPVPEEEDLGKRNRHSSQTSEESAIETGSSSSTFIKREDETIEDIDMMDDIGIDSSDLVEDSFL

Structure (SMILES): COc1nc(-c2cc(-c3cnn(C)c3)cnc2N)cc2c1C(=O)N(CC(F)(F)F)CC2
- IC50 [1]: 492 nM
- IC50 [2]: 326 nM
- IC50 [3]: 85 nM
- IC50 [4]: 31 nM
- IC50 (Cytochrome P450 2D6): > 50000 nM
- IC50 (Cytochrome P450 2C19): > 50000 nM
